According to patent US20240315219A1, “ANIMAL MODEL FOR DISEASES ASSOCIATED WITH ABSENCE OR REDUCTION OF SOCIAL DOMINANCE, AND PHARMACEUTICAL COMPOSITION FOR PREVENTING OR TREATING DISEASES” (ADEL, Inc., priority 2021, published 2024):

Experiments:
[1] = test system: C57BL/6 mice; assay: Tube dominance test, lowest-ranked mouse in C57BL/6 mouse group; assay type: in vivo; details: lowest-ranked C57BL/6 mouse, intracerebroventricular via osmotic pump
Method: (§1) The apparatus for the tube dominance test was made of a transparent plastic tube with a length of 30 cm and an inner diameter of 2.5 cm. To allow the mice to adapt to passing through the inside of the tube, the respective mice were trained to pass across the tube alternately on both sides for two or three consecutive days. During the training period, care was taken to ensure that the mice passed through the tube as naturally as possible without causing stress. This test was performed after identifying that all mice could freely pass through the tube without stress.
During the dominance test period, a total of 2 mice, one at each end of the tube, were placed to meet in the middle of the tube. In a case where one mouse pushed the other mouse out of the tube, one (1) winning point was earned. The test was repeated three times. For example, in a case where one mouse earned 2 or 3 winning points, the mouse was considered a winner and the other mouse was considered a loser. For the mice housed in the same cage, the tube test was performed on three mice in turn to determine social dominance ranking. For example, for mouse no. 1, the tube test was performed with mouse nos. 2 and 3. In a case where mouse no. 1 wins both mice, it is ranked first. Meanwhile, in a case where mouse no. 2 loses to mouse no. 1 and wins mouse no. 3, it is ranked second. In the two tests, mouse no. 3 is ranked third since it loses to both mice. For each test, win or loss was determined by winning points.
(§2) First, starting at 1 month of age, the CRTC3 KO mice and the WT mice were housed in one group and raised together for 2 months. This allowed social ranking to be naturally formed among the mice in the same group. To determine changes in ranking of the mice in the group, social dominance ranking was evaluated by a tube dominance test daily for 15 days starting at 3 months of age. The respective mice in the group were tested in turn, and dominance ranking of the mice in the group was determined based on their winning points. […]

[2] = test system: CRTC3 KO mice; assay: Tube dominance test, CRTC3 KO mice housed with WT mice; assay type: in vivo, mouse
Method: as §1
During the dominance test period, a total of 2 mice, one at each end of the tube, were placed to meet in the middle of the tube. In a case where one mouse pushed the other mouse out of the tube, one (1) winning point was earned. The test was repeated three times. […] For each test, win or loss was determined by winning points. […]
as §2, with “This allowed social ranking to be naturally formed among the mice in the same group.” left out

[3] = test system: wild-type rats; assay: Brain fMRI, resting-state functional connectivity (rsFC) in wild-type rats; assay type: in vivo, rat; details: SD rats, vs PBS group
Method: To identify which regions of the brain are affected by administration of AREG-EGF, fMRI was performed on wild-type rats injected with AREG-EGF. The rats having received PBS as a control and the rats having received AREG-EGF were imaged with fMRI one month later, in which interaction signals between various regions in the brain were checked. Specifically, the rats, which are SD (Spraque Dawley) rat species, were eight, 5- to 6-week-old male rats purchased from Orient Bio. AREG-EGF was administered to the rats by intracerebroventricular injection (ICV) on Weeks 6 to 7 after the purchase, and fMRI imaging was performed 21 days after the administration. The fMRI imaging was performed in such a way that first imaging was performed on an anesthetized rat under normal conditions (pre-state), and then fMRI re-imaging was performed on the same rat by placing cotton soaked in the urine of another rat, which it had never encountered, so that the rat being imaged can sniff the cotton (post-state). For rodents, social responses such as social identification occur through urine marking done by the other individuals. Thus, urine from an unfamiliar rat was used to elicit social responses. For specific methods of administering AREG-EGF and performing MRI analysis, see Experimental Examples 2.1 and 3. […]

| Substance | cages in which ranking of the lowest-ranked mouse increased after administration [1] | cages in which changes (increase) in social dominance ranking were observed after administration ([2]; CRTC3 KO mice with low ranking, housed with WT mice, intracerebroventricular via osmotic pump) | winning points after vs before administration ([2]; CRTC3 KO mice, ICV osmotic pump) | rsFC between PFC and PC (average z-transformed correlation coefficient) ([3]; ICV osmotic pump, fMRI 21 days after) | rsFC seed-correlation spatial map, seed Cg1/2 (24b′/24a′) ([3]; ICV) |
| --- | --- | --- | --- | --- | --- |
| mEGF: Recombinant mouse EGF from R&D Systems, SEQ ID NO: 12; control (NSYPGCPSSYDGYCLNGGVCMHIESLDSYTCNCVIGYSGDRCQTRDLRWWELR; Mouse EGF Protein; listed as Mus musculus) [reference compound] | 0% | – | – | – | – |
| AREG-HB: Peptide of the heparin-binding domain of amphiregulin, SEQ ID NO: 14, from Peptron; control (SVRVEQVVKPPQNKTESENTSDKPKRKKKGGKNGKNRRNRK; AREG-HB Peptide) [reference compound] | 10% | – | – | – | – |
| AREG-EGF: Peptide of the EGF domain of amphiregulin, SEQ ID NO: 13, from Peptron (KKNPCNAEFQNFCIHGECKYIEHLEAVTCKCQQEYFGERCGEK; AREG-EGF Peptide) | 80% | 50% | changes in winning points and increases in tube test ranking | significantly high activity | significantly enhanced region was observed in PC |
